According to US9403866B2, “Compositions and methods for increasing telomerase activity” (Telomerase Activation Sciences, Inc., priority 2009, dated 2016):
Read-outs that look alike come from different tables or passages of the source.

Key:
[1] = Plasma levels and bioavailability in rats; settings: male, Sprague Dawley, rat, in vivo, po, 10 mg/kg
Procedure: (§1) The plasma levels of a compound following a single intravenous and oral administration in carotid artery-cannulated male Sprague Dawley rats was determined. Plasma samples were collected and used to determine the plasma concentration of the compound and metabolites. In addition tissue samples, including whisker samples and PBMC cells were collected for telomerase activity analysis.
(§2) Carotid artery-cannulated male Sprague Dawley rats were divided into treatment groups according to Table 6. The rats were provided ad libitum SLAC-MO1 # YY080208 (Shanghai Laboratories Animal Center, Shanghai, China) throughout the in-life portion of the study with the exception of the overnight fasting period prior to oral dosing. Water was available ad libitum.
The compounds were dissolved in 2% EtOH/98% water to yield a final concentration of 2.5 mg/ml and 1 mg/ml for both intravenous and oral administration, respectively. The concentration of each compound was confirmed by HPLC analysis.
Body weights were taken on the day of dose administration. Dose volume was determined based on individual body weight taken on day of dosing.
(§3) Blood samples (approximately 250 μL) were collected via cannulae into tubes containing K2-EDTA anticoagulant and 1 mg/ml NaF at the various time points. Blood was stored on ice and then plasma separated via centrifugation (8000 rpm×6 minutes). The plasma was stored at […] until LC-MS/MS analysis.
Percentage of bioavailability was calculated.

[2] = design: species or system male Beagle dogs; settings: male, Beagle, dog, in vivo, po, 10 mg/kg
Procedure: as §1, with “level” for “levels”, “in” for “in carotid artery-cannulated”, “Beagle dogs” for “Sprague Dawley rats”
as §2, with “Male Beagle dogs” for “Carotid artery-cannulated male Sprague Dawley rats”, “5.” for “6.”, “dogs” for “rats”, “#W080701” for “# YY080208”
The compounds were dissolved in 2% EtOH/98% water […] to yield a final concentration of 2.5 mg/ml and 1 mg/ml for both intravenous and oral administration, respectively. The concentration of each compound was confirmed by HPLC analysis.
Doses were administered intravenously via the left femoral vein and then by oral dosing one week later. Body weights were taken on the day of dose administration. Dose volume was determined based on individual body weight taken on day of dosing.
as §3, with “right femoral vein” for “cannulae”, “appropriate” for “the various”

telomerase [3] = target: T1, telomerase (Homo sapiens, UniProt O14746); experiment: Keratinocyte cell/TRAP assay (HEKneo-P cells); type: cell-based; design: host or cells: HEKneo-P (pooled neonatal human epidermal keratinocytes)
T1 sequence (O14746 whole entry): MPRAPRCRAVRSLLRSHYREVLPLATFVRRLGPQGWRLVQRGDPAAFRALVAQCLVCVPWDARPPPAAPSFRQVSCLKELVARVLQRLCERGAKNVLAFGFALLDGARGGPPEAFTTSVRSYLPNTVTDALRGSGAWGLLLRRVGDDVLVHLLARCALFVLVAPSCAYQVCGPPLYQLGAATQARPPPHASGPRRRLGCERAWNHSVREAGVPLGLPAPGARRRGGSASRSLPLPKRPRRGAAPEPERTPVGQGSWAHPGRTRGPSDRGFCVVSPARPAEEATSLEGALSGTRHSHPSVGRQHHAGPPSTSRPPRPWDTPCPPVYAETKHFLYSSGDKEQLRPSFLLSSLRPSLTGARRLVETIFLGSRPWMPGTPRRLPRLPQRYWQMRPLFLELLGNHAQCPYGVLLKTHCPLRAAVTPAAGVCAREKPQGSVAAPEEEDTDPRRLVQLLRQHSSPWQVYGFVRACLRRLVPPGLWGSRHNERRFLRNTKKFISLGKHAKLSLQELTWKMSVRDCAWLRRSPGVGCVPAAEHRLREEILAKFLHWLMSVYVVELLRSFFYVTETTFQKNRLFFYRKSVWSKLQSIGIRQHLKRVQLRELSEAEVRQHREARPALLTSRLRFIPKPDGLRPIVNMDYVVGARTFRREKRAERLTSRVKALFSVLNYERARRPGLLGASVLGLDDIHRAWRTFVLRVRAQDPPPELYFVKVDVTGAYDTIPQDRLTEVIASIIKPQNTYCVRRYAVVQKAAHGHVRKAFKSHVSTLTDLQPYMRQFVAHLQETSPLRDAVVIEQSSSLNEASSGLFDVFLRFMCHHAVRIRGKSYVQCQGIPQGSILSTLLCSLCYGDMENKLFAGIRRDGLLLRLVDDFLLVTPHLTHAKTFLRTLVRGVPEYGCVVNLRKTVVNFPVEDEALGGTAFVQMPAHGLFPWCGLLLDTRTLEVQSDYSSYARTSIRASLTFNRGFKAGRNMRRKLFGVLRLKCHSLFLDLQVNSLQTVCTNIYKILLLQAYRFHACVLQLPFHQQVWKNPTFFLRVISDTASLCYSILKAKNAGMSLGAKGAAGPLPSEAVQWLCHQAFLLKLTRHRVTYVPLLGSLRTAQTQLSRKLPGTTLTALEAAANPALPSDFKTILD
Description: Harley et al., U.S. Pat. […] Harley et al., U.S. Pat. […] Non-treatment control (NT) was also included. […]

telomerase [4] = target: T1, telomerase; experiment: Peripheral blood monocyte cell (PBMC)/TRAP assay; type: cell-based; design: host or cells: HEKneo-P (pooled neonatal human epidermal keratinocytes); settings: 24 hours
Description: Cell lines suitable for use in the assay, normal human peripheral blood mononuclear cells (PBMCs) or Human Epidermal Keratinocytes (neonatal) (HEKs), can be obtained from commercial sources, such as Cascade Biologics, Portland, Oreg. or 4C Biotech, Seneffe, Belgium, or from the ATCC (American Type Culture Collection). ATCC normal human fibroblast cell lines, which can be located on the ATCC web site, include for example, CCL135, CCL137, and CCL151.
PBMC Isolation. Blood was collected in sodium heparin vacutainers and pooled into a single 50 mL polypropylene tube. Blood was diluted 1:1 with 1×PBS and mixed thoroughly by inversion. 25 mL of diluted blood was layered over 12 mL of Lympholyte-H (Cedarlane Laboratories) and centrifuged at room temperature for 20 min at 800 g. […]
Culture Conditions. The cells were counted using Trypan Blue exclusion and resuspended in complete media that is supplemented with 50 Units of hIL-2/mL so that final concentration of cells is 1×10^6/mL. […] At least once a week, cells are counted and media level is adjusted to keep cells around 5—10^5/mL. […]
Treatment with Analogs. After 10-14 days in culture, cells were counted and resuspended in conditioned media at a concentration of 1×10^6/mL. […]
TRAP Reaction and Gel. Samples were analyzed using a 1-step TRAP PCR reaction. […]

CC(C)(O)[C@@H]1CC[C@](C)([C@H]2[C@@H](O)C[C@@]3(C)[C@@H]4C[C@H](O)[C@H]5C(C)(C)[C@@H](O)CC[C@@]56C[C@@]46CC[C@]23C)O1 [Compound 2, 17-[5-(1-Hydroxy-1-methyl-ethyl)-2-methyl-tetrahydro-furan-2-yl]-4,4,13,14-tetramethyl-tetradecahydro-cyclopropa[9,10]cyclopenta[a]phenanthrene-3β,6α,16β-triol, reference compound]
Bioavailability % F [1]: 22.6% | Bioavailability % F [2]: 3% | Max fold increase of activity (telomerase [3]): 3.3 fold | Activity in in vitro HEK assay (telomerase [3]; 24 hr, 0.01 to 10 μM, vs vehicle control at peak of full dose curve): + (telomerase activation is 2 fold or more in comparison with vehicle control at the peak of the full dose curve.) | EC50 (telomerase [3]; telomerase activation): 30 nM | Fold increase at 1 μM (telomerase [4]): 1.6-20.7 fold
